Calls of active or inactive are those of the source. The rule behind the calls is not given here. Where a SMILES comes first, the peptide text is derived from it. Bridges are numbered along the chain shown (N, C = ends). [ ]: non-standard residue; d: D form. sY = N[C@@H](Cc1ccc(OS(=O)(=O)O)cc1)C(=O)O
Key:
[1] = molecular target: Neuronal acetylcholine receptor; alpha3/beta2 (Rattus norvegicus, UniProt P04757+P12390); experiment: Antagonist activity at rat alpha3beta2 nAChR expressed in xenopus oocytes assessed as inhibition of Ach- induced response at -70 mV holding potential preincubated for 5 mins followed by Ach stimulation by voltage-clamp based electrophysiological method; format: cell-based, Oocyte
Sequence of Neuronal acetylcholine receptor; alpha3/beta2 (P04757 whole entry): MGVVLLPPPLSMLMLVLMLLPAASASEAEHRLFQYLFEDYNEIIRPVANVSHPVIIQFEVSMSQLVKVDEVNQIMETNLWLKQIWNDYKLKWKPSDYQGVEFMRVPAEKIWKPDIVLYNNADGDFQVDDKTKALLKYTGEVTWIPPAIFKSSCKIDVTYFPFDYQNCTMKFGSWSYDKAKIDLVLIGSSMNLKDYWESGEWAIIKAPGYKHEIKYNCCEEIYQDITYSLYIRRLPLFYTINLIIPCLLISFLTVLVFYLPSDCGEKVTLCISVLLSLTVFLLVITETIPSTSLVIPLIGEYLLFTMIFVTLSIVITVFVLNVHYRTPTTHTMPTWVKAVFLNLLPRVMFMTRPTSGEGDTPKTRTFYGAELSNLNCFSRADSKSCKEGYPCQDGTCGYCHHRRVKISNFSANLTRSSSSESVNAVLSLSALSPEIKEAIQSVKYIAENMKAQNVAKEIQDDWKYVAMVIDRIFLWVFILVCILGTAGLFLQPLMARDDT
Sequence of Neuronal acetylcholine receptor; alpha3/beta2 (P12390 whole entry): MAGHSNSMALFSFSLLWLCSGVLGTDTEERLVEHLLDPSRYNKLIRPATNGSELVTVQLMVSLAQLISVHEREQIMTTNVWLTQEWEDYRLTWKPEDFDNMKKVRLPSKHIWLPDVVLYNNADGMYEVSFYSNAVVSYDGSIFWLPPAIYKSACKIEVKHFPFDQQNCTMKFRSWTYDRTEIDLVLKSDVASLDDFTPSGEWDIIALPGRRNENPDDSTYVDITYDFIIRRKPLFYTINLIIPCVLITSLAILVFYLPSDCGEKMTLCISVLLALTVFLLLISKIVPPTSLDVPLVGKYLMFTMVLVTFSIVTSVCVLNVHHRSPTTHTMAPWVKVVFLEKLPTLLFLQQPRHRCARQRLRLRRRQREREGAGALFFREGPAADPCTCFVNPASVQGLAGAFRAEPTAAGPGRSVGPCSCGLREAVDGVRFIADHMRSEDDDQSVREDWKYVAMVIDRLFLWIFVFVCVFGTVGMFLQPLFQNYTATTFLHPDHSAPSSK

[2] = Antagonist activity at human nAChR alpha7 S184N/R186K double mutant expressed in xenopus oocytes assessed as inhibition of Ach- induced response at -70 mV holding potential preincubated for 5 mins followed by Ach stimulation by voltage-clamp based electrophysiological method; format: cell-based; details: Oocyte
[3] = Antagonist activity at human nAChR alpha7 R186K mutant expressed in xenopus oocytes assessed as inhibition of Ach- induced response at -70 mV holding potential preincubated for 5 mins followed by Ach stimulation by voltage-clamp based electrophysiological method; format: cell-based; details: Oocyte
[4] = Antagonist activity at rat nAChR alpha7 K186R mutant expressed in xenopus oocytes assessed as inhibition of Ach- induced response at -70 mV holding potential preincubated for 5 mins followed by Ach stimulation by voltage-clamp based electrophysiological method; format: cell-based; details: Oocyte
[5] = Antagonist activity at human nAChR alpha7 S184N mutant expressed in xenopus oocytes assessed as inhibition of Ach- induced response at -70 mV holding potential preincubated for 5 mins followed by Ach stimulation by voltage-clamp based electrophysiological method; format: cell-based; details: Oocyte
[6] = molecular target: Neuronal acetylcholine receptor subunit alpha-7 (Rattus norvegicus, UniProt Q05941); experiment: Antagonist activity at rat alpha7 nAChR expressed in xenopus oocytes assessed as inhibition of Ach- induced response at -70 mV holding potential preincubated for 5 mins followed by Ach stimulation by voltage-clamp based electrophysiological method; format: cell-based, Oocyte
Sequence of Neuronal acetylcholine receptor subunit alpha-7 (Rattus norvegicus, UniProt Q05941) (Q05941 whole entry): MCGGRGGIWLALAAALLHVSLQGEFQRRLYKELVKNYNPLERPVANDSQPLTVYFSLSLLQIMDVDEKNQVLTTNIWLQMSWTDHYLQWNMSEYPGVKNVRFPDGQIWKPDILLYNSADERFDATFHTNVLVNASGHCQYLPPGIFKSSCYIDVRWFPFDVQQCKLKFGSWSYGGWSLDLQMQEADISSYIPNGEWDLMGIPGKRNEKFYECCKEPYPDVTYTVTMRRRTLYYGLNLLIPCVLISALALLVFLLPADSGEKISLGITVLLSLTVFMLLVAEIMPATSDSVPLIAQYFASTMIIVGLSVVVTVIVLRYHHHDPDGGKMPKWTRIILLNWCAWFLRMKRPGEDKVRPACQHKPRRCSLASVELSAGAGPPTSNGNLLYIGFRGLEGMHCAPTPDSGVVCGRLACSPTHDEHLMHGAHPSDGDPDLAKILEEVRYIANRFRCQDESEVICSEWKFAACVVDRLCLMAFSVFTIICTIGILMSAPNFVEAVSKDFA

[7] = Antagonist activity at rat nAChR alpha7 N184S mutant expressed in xenopus oocytes assessed as inhibition of Ach- induced response at -70 mV holding potential preincubated for 5 mins followed by Ach stimulation by voltage-clamp based electrophysiological method; format: cell-based; details: Oocyte
[8] = molecular target: Neuronal acetylcholine receptor subunit alpha-7 (Homo sapiens, UniProt P36544); format: cell-based, Oocyte
[9] = Antagonist activity at rat nAChR alpha7 Q141H mutant expressed in xenopus oocytes assessed as inhibition of Ach- induced response at -70 mV holding potential preincubated for 5 mins followed by Ach stimulation by voltage-clamp based electrophysiological method; format: cell-based; details: Oocyte
[10] = molecular target: Neuronal acetylcholine receptor; alpha2/beta4 (Rattus norvegicus, UniProt P12389+P12392); experiment: Antagonist activity at rat alpha2beta4 nAChR expressed in xenopus oocytes assessed as inhibition of Ach- induced response at -70 mV holding potential preincubated for 5 mins followed by Ach stimulation by voltage-clamp based electrophysiological method; format: cell-based, Oocyte
Sequence of Neuronal acetylcholine receptor; alpha2/beta4 (P12389 whole entry): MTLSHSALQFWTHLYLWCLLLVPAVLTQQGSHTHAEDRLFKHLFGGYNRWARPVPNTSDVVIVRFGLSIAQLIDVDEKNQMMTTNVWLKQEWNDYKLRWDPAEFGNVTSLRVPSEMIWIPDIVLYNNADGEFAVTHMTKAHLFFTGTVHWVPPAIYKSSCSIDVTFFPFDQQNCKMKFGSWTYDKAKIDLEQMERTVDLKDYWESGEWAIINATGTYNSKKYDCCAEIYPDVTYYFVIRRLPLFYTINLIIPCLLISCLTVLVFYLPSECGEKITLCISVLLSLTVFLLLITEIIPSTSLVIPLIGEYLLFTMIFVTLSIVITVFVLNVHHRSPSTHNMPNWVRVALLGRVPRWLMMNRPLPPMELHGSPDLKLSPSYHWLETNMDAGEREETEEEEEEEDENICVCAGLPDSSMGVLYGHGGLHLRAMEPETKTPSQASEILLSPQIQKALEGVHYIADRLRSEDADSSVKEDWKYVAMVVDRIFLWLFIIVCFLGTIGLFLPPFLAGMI
Sequence of Neuronal acetylcholine receptor; alpha2/beta4 (P12392 whole entry): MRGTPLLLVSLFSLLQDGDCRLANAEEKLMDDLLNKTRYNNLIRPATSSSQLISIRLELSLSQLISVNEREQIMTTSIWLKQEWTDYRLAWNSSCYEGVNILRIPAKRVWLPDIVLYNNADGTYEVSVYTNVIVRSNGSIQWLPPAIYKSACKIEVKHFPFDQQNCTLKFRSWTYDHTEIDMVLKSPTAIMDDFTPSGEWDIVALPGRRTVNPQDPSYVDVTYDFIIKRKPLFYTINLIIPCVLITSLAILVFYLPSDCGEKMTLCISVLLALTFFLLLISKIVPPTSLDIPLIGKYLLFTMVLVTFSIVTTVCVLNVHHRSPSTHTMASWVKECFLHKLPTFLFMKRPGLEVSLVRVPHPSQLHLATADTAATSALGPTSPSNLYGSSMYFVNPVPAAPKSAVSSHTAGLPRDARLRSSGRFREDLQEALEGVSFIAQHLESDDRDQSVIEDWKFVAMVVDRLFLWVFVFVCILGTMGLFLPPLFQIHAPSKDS

[11] = molecular target: Neuronal acetylcholine receptor; alpha2/beta4 (Rattus norvegicus) (UniProt P12389+P12392); experiment: Antagonist activity at rat alpha2beta4 nAChR expressed in xenopus oocytes assessed as inhibition of Ach- induced response at 10 uM at -70 mV holding potential preincubated for 5 mins followed by Ach stimulation by voltage-clamp based electrophysiological method; format: cell-based; details: Oocyte
[12] = molecular target: Neuronal acetylcholine receptor; alpha3/beta4 (Rattus norvegicus) (UniProt P04757+P12392); experiment: Antagonist activity at rat alpha3beta4 nAChR expressed in xenopus oocytes assessed as inhibition of Ach- induced response at 10 uM at -70 mV holding potential preincubated for 5 mins followed by Ach stimulation by voltage-clamp based electrophysiological method; format: cell-based; details: Oocyte
[13] = molecular target: Neuronal acetylcholine receptor; alpha4/beta4 (Rattus norvegicus) (UniProt P09483+P12392); experiment: Antagonist activity at rat alpha4beta4 nAChR expressed in xenopus oocytes assessed as inhibition of Ach- induced response at 10 uM at -70 mV holding potential preincubated for 5 mins followed by Ach stimulation by voltage-clamp based electrophysiological method; format: cell-based; details: Oocyte
[14] = Antagonist activity at rat alpha6/ alpha3beta2beta3 nAChR expressed in xenopus oocytes assessed as inhibition of Ach- induced response at -70 mV holding potential preincubated for 5 mins followed by Ach stimulation by voltage-clamp based electrophysiological method; format: cell-based; details: Oocyte
[15] = molecular target: Nicotinic acetylcholine receptor alpha6/alpha3/beta4 (Homo sapiens, UniProt P30926+P32297+Q15825); experiment: Antagonist activity at rat alpha6/alpha3beta4 nAChR expressed in xenopus oocytes assessed as inhibition of Ach- induced response at -70 mV holding potential preincubated for 5 mins followed by Ach stimulation by voltage-clamp based electrophysiological method; format: cell-based, Oocyte
[16] = molecular target: Neuronal acetylcholine receptor; alpha4/beta4 (Rattus norvegicus, UniProt P09483+P12392); experiment: Antagonist activity at rat alpha4beta4 nAChR expressed in xenopus oocytes assessed as inhibition of Ach- induced response at -70 mV holding potential preincubated for 5 mins followed by Ach stimulation by voltage-clamp based electrophysiological method; format: cell-based, Oocyte
[17] = molecular target: Nicotinic acetylcholine receptor alpha9/alpha10 (Rattus norvegicus) (UniProt P43144+Q9JLB5); experiment: Antagonist activity at rat alpha9alpha10 nAChR expressed in xenopus oocytes assessed as inhibition of Ach- induced response at 10 uM at -70 mV holding potential preincubated for 5 mins followed by Ach stimulation by voltage-clamp based electrophysiological method; format: cell-based; details: Oocyte
[18] = molecular target: Neuronal acetylcholine receptor; alpha2/beta2 (Rattus norvegicus, UniProt P12389+P12390); experiment: Antagonist activity at rat alpha2beta2 nAChR expressed in xenopus oocytes assessed as inhibition of Ach- induced response at -70 mV holding potential preincubated for 5 mins followed by Ach stimulation by voltage-clamp based electrophysiological method; format: cell-based, Oocyte
Sequence of Neuronal acetylcholine receptor; alpha2/beta2 (P12389 whole entry): as the sequence (P12389 whole entry) above
Sequence of Neuronal acetylcholine receptor; alpha2/beta2 (P12390 whole entry): as the sequence (P12390 whole entry) above

[19] = molecular target: Neuronal acetylcholine receptor; alpha4/beta2 (Rattus norvegicus) (UniProt P09483+P12390); experiment: Antagonist activity at rat alpha4beta2 nAChR expressed in xenopus oocytes assessed as inhibition of Ach- induced response at 10 uM at -70 mV holding potential preincubated for 5 mins followed by Ach stimulation by voltage-clamp based electrophysiological method; format: cell-based; details: Oocyte
[20] = molecular target: Neuronal acetylcholine receptor; alpha2/beta2 (Rattus norvegicus) (UniProt P12389+P12390); experiment: Antagonist activity at rat alpha2beta2 nAChR expressed in xenopus oocytes assessed as inhibition of Ach- induced response at 10 uM at -70 mV holding potential preincubated for 5 mins followed by Ach stimulation by voltage-clamp based electrophysiological method; format: cell-based; details: Oocyte
[21] = molecular target: Neuronal acetylcholine receptor; alpha4/beta2 (Rattus norvegicus, UniProt P09483+P12390); experiment: Antagonist activity at rat alpha4beta2 nAChR expressed in xenopus oocytes assessed as inhibition of Ach- induced response at -70 mV holding potential preincubated for 5 mins followed by Ach stimulation by voltage-clamp based electrophysiological method; format: cell-based, Oocyte
Sequence of Neuronal acetylcholine receptor; alpha4/beta2 (P09483 whole entry): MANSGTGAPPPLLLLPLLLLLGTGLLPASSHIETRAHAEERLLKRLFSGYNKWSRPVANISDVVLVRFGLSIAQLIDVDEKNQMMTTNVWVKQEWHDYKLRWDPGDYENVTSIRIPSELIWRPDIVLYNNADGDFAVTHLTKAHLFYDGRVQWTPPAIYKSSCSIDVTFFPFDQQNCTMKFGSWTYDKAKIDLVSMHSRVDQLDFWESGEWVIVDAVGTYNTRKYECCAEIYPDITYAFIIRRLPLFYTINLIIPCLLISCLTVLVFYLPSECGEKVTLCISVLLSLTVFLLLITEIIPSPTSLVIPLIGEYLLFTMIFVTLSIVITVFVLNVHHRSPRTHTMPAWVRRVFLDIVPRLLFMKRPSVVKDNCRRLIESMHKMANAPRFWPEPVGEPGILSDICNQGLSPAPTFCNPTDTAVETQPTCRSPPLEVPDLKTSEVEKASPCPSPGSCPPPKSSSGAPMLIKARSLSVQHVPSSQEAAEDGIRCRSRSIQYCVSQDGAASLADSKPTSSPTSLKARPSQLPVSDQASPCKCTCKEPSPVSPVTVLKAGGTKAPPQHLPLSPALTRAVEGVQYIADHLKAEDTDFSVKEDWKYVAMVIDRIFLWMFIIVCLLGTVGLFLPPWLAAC
Sequence of Neuronal acetylcholine receptor; alpha4/beta2 (P12390 whole entry): as the sequence (P12390 whole entry) above

[22] = molecular target: Nicotinic acetylcholine receptor alpha9/alpha10 (Rattus norvegicus, UniProt P43144+Q9JLB5); experiment: Antagonist activity at rat alpha9alpha10 nAChR expressed in xenopus oocytes assessed as inhibition of Ach- induced response at -70 mV holding potential preincubated for 5 mins followed by Ach stimulation by voltage-clamp based electrophysiological method; format: cell-based, Oocyte
[23] = molecular target: Neuronal acetylcholine receptor; alpha3/beta4 (Rattus norvegicus, UniProt P04757+P12392); experiment: Antagonist activity at rat alpha3beta4 nAChR expressed in xenopus oocytes assessed as inhibition of Ach- induced response at -70 mV holding potential preincubated for 5 mins followed by Ach stimulation by voltage-clamp based electrophysiological method; format: cell-based, Oocyte

CC[C@H](C)[C@H](N)C(=O)N[C@@H](CCCNC(=N)N)C(=O)N[C@@H](CC(=O)O)C(=O)N[C@@H](CCC(=O)O)C(=O)N[C@H]1CSSC[C@H]2NC(=O)[C@H](C)NC(=O)[C@@H]3CCCN3C(=O)[C@H](CC(N)=O)NC(=O)[C@H](CO)NC(=O)[C@H](CSSC[C@@H](C(=O)N[C@@H](CCCNC(=N)N)C(=O)N[C@@H](CCCNC(=N)N)C(=O)N[C@@H](CCCNC(=N)N)C(=O)O)NC(=O)[C@H](C(C)C)NC(=O)[C@H](Cc3cnc[nH]3)NC(=O)[C@@H]3CCCN3C(=O)[C@H](CC(N)=O)NC(=O)[C@H](CC(N)=O)NC(=O)[C@H](C(C)C)NC(=O)[C@H](CCCNC(=N)N)NC2=O)NC1=O
IC50 [1]: 18 nM

C[C@@H]1NC(=O)[C@H](C)NC(=O)[C@@H]2CSSC[C@H](NC(=O)CNC(=O)CN)C(=O)N[C@@H](CSSC[C@@H](C(N)=O)NC(=O)[C@H](Cc3ccc(OS(=O)(=O)O)cc3)NC(=O)[C@H](CC(=O)O)NC(=O)[C@H](CCC(N)=O)NC(=O)[C@H](CC(N)=O)NC(=O)[C@H](CC(N)=O)NC1=O)C(=O)N[C@@H](CO)C(=O)N[C@@H](Cc1cnc[nH]1)C(=O)N1CCC[C@H]1C(=O)N[C@@H](C)C(=O)N2
IC50 [1]: 0.28 nM

CC[C@H](C)[C@@H]1NC(=O)[C@H](Cc2cnc[nH]2)NC(=O)[C@@H]2CCCN2C(=O)[C@H](CC(N)=O)NC(=O)[C@H](CC(N)=O)NC(=O)[C@H](C(C)C)NC(=O)[C@H](CC(N)=O)NC(=O)[C@@H]2CSSC[C@H](NC(=O)CN)C(=O)N[C@@H](CSSC[C@@H](C(=O)O)NC1=O)C(=O)N[C@@H](CO)C(=O)N[C@@H](CC(=O)O)C(=O)N1CCC[C@H]1C(=O)N[C@@H](C)C(=O)N2 (H-GCCSDPACNVNNPHIC-OH; disulfide 2-8, 3-16)
IC50 [2]: 99 nM | IC50 [3]: 200 nM | IC50 [4]: 7480 nM | IC50 [5]: 7140 nM | IC50 [6]: 100 nM | IC50 [7]: 130 nM | IC50 [8]: 13700 nM | IC50 [9]: 120 nM

CC(C)C[C@@H]1NC(=O)[C@H](CC(=O)O)NC(=O)[C@@H]2CCCN2C(=O)[C@H](Cc2cnc[nH]2)NC(=O)[C@H](C)NC(=O)[C@H](CC(N)=O)NC(=O)[C@H](CCCNC(=N)N)NC(=O)[C@@H]2CSSC[C@H](NC(=O)CN)C(=O)N[C@@H](CSSC[C@@H](C(=O)O)NC1=O)C(=O)N[C@@H](CO)C(=O)N[C@@H](CC(=O)O)C(=O)N1CCC[C@H]1C(=O)N1CCC[C@H]1C(=O)N2 (H-GCCSDPPCRNAHPDLC-OH; disulfide 2-8, 3-16)
IC50 [2]: 280 nM | IC50 [3]: 1580 nM | IC50 [4]: > 10000 nM | IC50 [5]: > 10000 nM | IC50 [6]: 200 nM | IC50 [7]: 3290 nM | IC50 [8]: > 10000 nM | IC50 [9]: 280 nM

CSCC[C@@H]1NC(=O)[C@H](CC(N)=O)NC(=O)[C@@H]2CSSC[C@H](NC(=O)CN)C(=O)N[C@@H](CSSC[C@@H](C(=O)O)NC(=O)[C@H](Cc3ccc(OS(=O)(=O)O)cc3)NC(=O)[C@H](CC(=O)O)NC(=O)[C@@H]3CCCN3C(=O)[C@H](CC(N)=O)NC(=O)[C@H](CC(N)=O)NC1=O)C(=O)N[C@@H](CO)C(=O)N[C@@H](CC(=O)O)C(=O)N1CCC[C@H]1C(=O)N[C@@H](CCCNC(=N)N)C(=O)N2 (H-GCCSDPRCNMNNPD[sY]C-OH; disulfide 2-8, 3-16)
IC50 [6]: 30 nM

C[C@@H]1NC(=O)[C@@H]2CSSC[C@H](NC(=O)CN)C(=O)N[C@@H](CSSC[C@@H](C(=O)N[C@@H](CCCNC(=N)N)C(=O)O)NC(=O)[C@H](Cc3cnc[nH]3)NC(=O)[C@H](CCC(=O)O)NC(=O)[C@H](Cc3cnc[nH]3)NC1=O)C(=O)N[C@@H](CO)C(=O)N[C@@H](CC(N)=O)C(=O)N1CCC[C@H]1C(=O)N1CCC[C@H]1C(=O)N2 (H-GCCSNPPCAHEHCR-OH; disulfide 2-8, 3-13)
IC50 [10]: > 10000 nM | inhibition [11]: inactive | inhibition [12]: inactive | inhibition [13]: inactive | IC50 [14]: 630 nM | IC50 [15]: > 10000 nM | IC50 [16]: > 10000 nM | IC50 [1]: > 10000 nM | IC50 [6]: 1100 nM | inhibition [17]: inactive | IC50 [18]: > 10000 nM | inhibition [19]: inactive | inhibition [20]: inactive | IC50 [21]: > 10000 nM | IC50 [22]: > 10000 nM | IC50 [23]: > 10000 nM

C[C@@H]1NC(=O)[C@@H]2CSSC[C@H](NC(=O)[C@@H](N)CCC(N)=O)C(=O)N[C@@H](CSSC[C@@H](C(N)=O)NC(=O)[C@H](Cc3cnc[nH]3)NC(=O)[C@H](CCC(=O)O)NC(=O)[C@H](Cc3cnc[nH]3)NC1=O)C(=O)N[C@@H](CO)C(=O)N[C@@H](CC(N)=O)C(=O)N1CCC[C@H]1C(=O)N1CCC[C@H]1C(=O)N2 (H-QCCSNPPCAHEHC-NH2; disulfide 2-8, 3-13)
IC50 [10]: > 10000 nM | inhibition [11]: inactive | inhibition [12]: inactive | inhibition [13]: inactive | IC50 [14]: 550 nM | IC50 [15]: > 10000 nM | IC50 [16]: > 10000 nM | IC50 [1]: 1560 nM | IC50 [6]: 470 nM | inhibition [17]: inactive | IC50 [18]: > 10000 nM | inhibition [19]: inactive | inhibition [20]: inactive | IC50 [21]: > 10000 nM | IC50 [22]: > 10000 nM | IC50 [23]: > 10000 nM
